How the values were obtained:
NLRP3 [1] = biological target: T1, NLRP3 (Homo sapiens, UniProt Q96P20); assay: Human whole blood IL1β release assay; assay type: cell-based; set-up: Plate out 80 μl of whole blood containing 1 μg/ml of LPS in 96-well, clear bottom cell culture plate; from tissue; host or cells: human whole blood from healthy donors; details: NLRP3 inhibitory activity, 1 μg/ml LPS, nigericin 10 μM, IL-1β by AlphaLisa, read-out: HWB IC50
Experimental: For systemic delivery, the ability to inhibit NLRP3 when the compounds are present within the bloodstream is of great importance. For this reason, the NLRP3 inhibitory activity of a number of compounds in human whole blood was investigated in accordance with the following protocol.
Human whole blood in Li-heparin tubes was obtained from healthy donors from a volunteer donor panel. • 1. […] Incubate for 3 hrs at 37° C., 5% CO2 • 4. Add 10 μl nigericin (Sigma #N7143) (10 μM FAC) to all wells • 5. Incubate for 1 hr at 37° C., 5% CO2 • 6. At the end of the incubation period, spin plates at 300×g for 5 mins to pellet cells and remove 20 μl of supernatant and add to 96-well v-bottom plates for IL-1β analysis (note: these plates containing the supernatants can be stored at −80° C. to be analysed at a later date) • 7. IL-1β was measured according to the manufacturer protocol (Perkin Elmer-AlphaLisa IL-1 Kit AL220F-5000) • 8. IC50 data is fitted to a non-linear regression equation (log inhibitor vs response-variable slope 4-parameters)

NLRP3 [2] = biological target: T1, NLRP3; assay: THP-1 cells pyroptosis assay; assay type: cell-based; set-up: Seed THP-1 cells (25,000 cells/well) containing 1.0 μg/ml LPS in 40 μl of RPMI medium; host or cells: THP-1 cells; details: NLRP3 inhibitory activity, 1.0 μg/ml LPS, nigericin 5 μM, resazurin readout
Experimental: The cells were routinely passaged and grown to confluency (˜10^6 cells/ml). On the day of the experiment, THP-1 cells were harvested and resuspended into RPMI medium (without FBS). The cells were then counted and viability (>90%) checked by Trypan blue (Sigma #T8154). […] To this diluted cell solution was added LPS (Sigma #L4524) to give a 1 μg/ml Final Assay Concentration (FAC). 40 μl of the final preparation was aliquoted into each well of a 96-well plate. The plate thus prepared was used for compound screening.
The following method step-by-step assay was followed for compound screening. • 1. […] Incubate for 3 hrs at 37° C. in 5% CO2 • 4. Add 5 μl nigericin (Sigma #N7143) (FAC 5 μM) to all wells • 5. Incubate for 1 hr at 37° C. and 5% CO2 • 6. At the end of the incubation period, spin plates at 300×g for 3 mins and remove supernatant • 7. Then add 50 μl of resazurin (Sigma #R7017) (FAC 100 μM resazurin in RPMI medium without FBS) and incubate plates for a further 1-2 hrs at 37° C. and 5% CO2 • 8. […] IC50 data is fitted to a non-linear regression equation (log inhibitor vs response-variable slope 4-parameters)

[3] = PK protocol, intravenous administration in rats; assay type: in vivo; details: rat, 1 mg/kg, male Sprague Dawley rats, plasma; for Vd: read-out: Vdss
Experimental: Pharmacokinetic parameters were determined in male Sprague Dawley rats (Vital River Laboratory Animal Technology Co Ltd, Beijing, China, 7-9 weeks old). Animals were individually housed during the study and maintained under a 12 h light/dark cycle. Animals had free access to food and water.
For intravenous administration, compounds were formulated as a solution in DMSO:PBS [10:90] in 2 mL/kg dosing volume and administered via tail vein.
Serial blood samples (about 200 μL) were taken from each animal at each of 8 time-points post dose (0.083, 0.25, 0.5, 1, 2, 4, 8 and 24 h). Samples were held on ice for no longer than 30 minutes before centrifugation (5,696 rpm (3,000 g) for 15 minutes) for plasma generation. Plasma was frozen on dry ice prior to bioanalysis. PK parameters were generated from LC-MS/MS data using Phoenix WinNonlin 6.3 software.

T1 sequence (Q96P20 whole entry): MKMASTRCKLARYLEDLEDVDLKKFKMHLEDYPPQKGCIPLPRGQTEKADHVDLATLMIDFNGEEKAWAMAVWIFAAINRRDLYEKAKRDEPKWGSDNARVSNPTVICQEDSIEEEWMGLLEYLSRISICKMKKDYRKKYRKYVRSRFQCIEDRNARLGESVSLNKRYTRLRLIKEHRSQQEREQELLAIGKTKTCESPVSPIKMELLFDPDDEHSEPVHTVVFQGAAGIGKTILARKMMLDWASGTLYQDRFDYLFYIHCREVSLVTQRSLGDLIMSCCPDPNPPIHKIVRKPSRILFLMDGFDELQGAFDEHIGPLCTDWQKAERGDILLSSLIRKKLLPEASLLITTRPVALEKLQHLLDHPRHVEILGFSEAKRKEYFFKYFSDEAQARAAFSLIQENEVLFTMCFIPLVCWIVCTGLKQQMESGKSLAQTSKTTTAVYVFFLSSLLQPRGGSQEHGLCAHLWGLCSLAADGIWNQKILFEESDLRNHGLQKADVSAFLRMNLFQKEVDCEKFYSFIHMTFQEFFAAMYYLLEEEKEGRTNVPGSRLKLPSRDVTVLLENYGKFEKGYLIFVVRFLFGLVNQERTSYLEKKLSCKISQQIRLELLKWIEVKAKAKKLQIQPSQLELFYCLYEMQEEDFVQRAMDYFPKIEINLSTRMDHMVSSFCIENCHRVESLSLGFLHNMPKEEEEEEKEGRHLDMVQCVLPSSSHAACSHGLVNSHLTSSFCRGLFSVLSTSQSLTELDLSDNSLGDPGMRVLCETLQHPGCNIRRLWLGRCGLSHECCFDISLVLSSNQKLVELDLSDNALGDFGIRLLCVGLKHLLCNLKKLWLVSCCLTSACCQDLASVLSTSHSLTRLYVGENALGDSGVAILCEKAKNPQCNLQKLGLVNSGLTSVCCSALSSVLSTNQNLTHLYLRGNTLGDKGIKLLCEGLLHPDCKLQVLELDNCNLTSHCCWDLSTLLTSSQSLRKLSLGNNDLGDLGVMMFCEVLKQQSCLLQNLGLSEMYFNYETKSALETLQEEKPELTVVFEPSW

In the case of `CN(C)CCn1ccc(S(=N)(=O)NC(=O)Nc2c3c(cc4c2CCC4)CCC3)n1` (centres unmarked) [Example 10, 1-(2-(Dimethylamino)ethyl)-N-((1,2,3,5,6,7-hexahydro-s-indacen-4-yl)carbamoyl)-1H-pyrazole-3-sulfonimidamide], the IC50 (NLRP3 [1]) is reported as < 500 nM and the IC50 (NLRP3 [2]) is reported as < 500 nM.
For “N-((2-(2-Cyanopyridin-4-yl)-4-fluoro-6-isopropylphenyl)carbamoyl)-1-((R)-2-hydroxypropyl)-1H-pyrazole-3-sulfonimidamide [Example 18]”, the IC50 (NLRP3 [1]) was < 500 nM and the IC50 (NLRP3 [2]) was < 500 nM.
In the case of `CCN(CC)CCCS(=N)(=O)NC(=O)Nc1c2c(cc3c1CCC3)CCC2` (centres unmarked) [Example 6, 3-(Diethylamino)-N-((1,2,3,5,6,7-hexahydro-s-indacen-4-yl)carbamoyl) propane-1-sulfonimidamide], the IC50 (NLRP3 [2]) is reported as < 10000 nM.
With `C[C@@H](O)Cn1ccc(S(=N)(=O)NC(=O)Nc2c3c(cc4c2CCC4)CCC3)n1` (stereo partly drawn) [Example 3, N-((1,2,3,5,6,7-Hexahydro-s-indacen-4-yl)carbamoyl)-1-((R)-2-hydroxypropyl)-1H-pyrazole-3-sulfonimidamide] the IC50 (NLRP3 [1]) was < 500 nM, the AUC [3] was 2250 ng·h/mL and the clearance [3] was 7.4 mL/min/kg. The half-life [3] was 2.7 h, the Vd [3] was 0.75 L/kg and the IC50 (NLRP3 [2]) was < 100 nM.
In the case of `CC(C)n1ccc(S(=N)(=O)NC(=O)Nc2c(-c3ccncc3)cc(F)c3c2CCC3)n1` (centres unmarked) [Example 24, N-((7-Fluoro-5-(pyridin-4-yl)-2,3-dihydro-1H-inden-4-yl)carbamoyl)-1-isopropyl-1H-pyrazole-3-sulfonimidamide], the IC50 (NLRP3 [1]) is reported as < 500 nM and the IC50 (NLRP3 [2]) is reported as < 100 nM.
In the case of `COc1cc(-c2cc(F)cc(C(C)C)c2NC(=O)NS(=N)(=O)c2ccn(C(C)C)n2)ccn1` (centres unmarked) [Example 16, N-((4-Fluoro-2-isopropyl-6-(2-methoxypyridin-4-yl)phenyl)carbamoyl)-1-isopropyl-1H-pyrazole-3-sulfonimidamide], the IC50 (NLRP3 [1]) is reported as < 1000 nM and the IC50 (NLRP3 [2]) is reported as < 100 nM.
For “5-(Azetidin-1-ylmethyl)-N-((4-fluoro-2,6-diisopropylphenyl) carbamoyl)-1-methyl-1H-pyrazole-3-sulfonimidamide [Example 23]”, the IC50 (NLRP3 [1]) was < 5000 nM and the IC50 (NLRP3 [2]) was < 100 nM.
For `C[C@@H](O)Cn1ccc(S(=N)(=O)NC(=O)Nc2c(-c3ccncc3)cc(F)c3c2CCC3)n1` (stereo partly drawn) [Example 25, N-((7-Fluoro-5-(pyridin-4-yl)-2,3-dihydro-1H-inden-4-yl)carbamoyl)-1-((R)-2-hydroxypropyl)-1H-pyrazole-3-sulfonimidamide], the IC50 (NLRP3 [1]) was < 500 nM and the IC50 (NLRP3 [2]) was < 100 nM.
For `COc1cc(-c2ccc3c(c2NC(=O)N[S@@](=N)(=O)c2ccn(C(C)C)n2)CCC3)ccn1` [Example 27, (R)-1-Isopropyl-N-((5-(2-methoxypyridin-4-yl)-2,3-dihydro-1H-inden-4-yl)carbamoyl)-1H-pyrazole-3-sulfonimidamide], the IC50 (NLRP3 [1]) was < 500 nM and the IC50 (NLRP3 [2]) was < 100 nM.
For `CC(C)n1cc(Cl)c(S(=N)(=O)NC(=O)Nc2c3c(cc4c2CCC4)CCC3)n1` (centres unmarked) [Example 2, 4-Chloro-N-((1,2,3,5,6,7-hexahydro-s-indacen-4-yl)carbamoyl)-1-iso-propyl-1H-pyrazole-3-sulfonimidamide], the IC50 (NLRP3 [1]) was < 5000 nM and the IC50 (NLRP3 [2]) was < 100 nM.
With `COc1cc(-c2cc(F)cc(C(C)C)c2NC(=O)NS(=N)(=O)c2ccn(C[C@@H](C)O)n2)ccn1` (stereo partly drawn) [Example 19, N-((4-Fluoro-2-isopropyl-6-(2-methoxypyridin-4-yl)phenyl)carbamoyl)-1-((R)-2-hydroxypropyl)-1H-pyrazole-3-sulfonimidamide] the IC50 (NLRP3 [1]) was < 1000 nM and the IC50 (NLRP3 [2]) was < 100 nM.
For `COc1cc(-c2ccc3c(c2NC(=O)NS(=N)(=O)c2nn(C(C)C)cc2Cl)CCC3)ccn1` (centres unmarked) [Example 11, 4-Chloro-1-isopropyl-N-((5-(2-methoxypyridin-4-yl)-2,3-dihydro-1H-inden-4-yl)carbamoyl)-1H-pyrazole-3-sulfonimidamide], the IC50 (NLRP3 [1]) was < 1000 nM, the AUC [3] was 2720 ng·h/mL and the clearance [3] was 6.1 mL/min/kg. For the same compound, the half-life [3] was 1 h, the Vd [3] was 0.45 L/kg and the IC50 (NLRP3 [2]) was < 100 nM.
With `COc1cc(-c2cc(F)cc(C(C)C)c2NC(=O)NS(=N)(=O)c2nn(C(C)C)cc2Cl)ccn1` (centres unmarked) [Example 13, 4-Chloro-N-((4-fluoro-2-isopropyl-6-(2-methoxypyridin-4-yl)phenyl)carbamoyl)-1-isopropyl-1H-pyrazole-3-sulfonimidamide] the IC50 (NLRP3 [1]) was < 1000 nM and the IC50 (NLRP3 [2]) was < 100 nM.
With `COc1cc(-c2ccc3c(c2NC(=O)NS(=N)(=O)c2ccn(C(C)C)n2)CCC3)ccn1` (racemic) [Example 14, 1-Isopropyl-N-((5-(2-methoxypyridin-4-yl)-2,3-dihydro-1H-inden-4-yl)carbamoyl)-1H-pyrazole-3-sulfonimidamide] the IC50 (NLRP3 [1]) was < 500 nM, the AUC [3] was 1740 ng·h/mL and the clearance [3] was 9.6 mL/min/kg. The half-life [3] was 0.9 h, the Vd [3] was 0.34 L/kg and the IC50 (NLRP3 [2]) was < 100 nM.
For `CC(C)N1CC(S(=N)(=O)NC(=O)Nc2c3c(cc4c2CCC4)CCC3)C1` (centres unmarked) [Example 7, N-((1,2,3,5,6,7-Hexahydro-s-indacen-4-yl)carbamoyl)-1-isopropyl-azetidine-3-sulfonimidamide], the IC50 (NLRP3 [1]) was < 5000 nM and the IC50 (NLRP3 [2]) was < 5000 nM.
For `CC(C)c1cc(F)cc(-c2ccnc(C#N)c2)c1NC(=O)NS(=N)(=O)c1nn(C(C)C)cc1Cl` (centres unmarked) [Example 12, 4-Chloro-N-((2-(2-cyanopyridin-4-yl)-4-fluoro-6-isopropylphenyl)carbamoyl)-1-isopropyl-1H-pyrazole-3-sulfonimidamide], the IC50 (NLRP3 [1]) was < 500 nM and the IC50 (NLRP3 [2]) was < 100 nM.
For `COc1cc(-c2ccc3c(c2NC(=O)NS(=N)(=O)c2ccn(C[C@@H](C)O)n2)CCC3)ccn1` (stereo partly drawn) [Example 17, 1-((R)-2-Hydroxypropyl)-N-((5-(2-methoxypyridin-4-yl)-2,3-dihydro-1H-inden-4-yl)carbamoyl)-1H-pyrazole-3-sulfonimidamide], the IC50 (NLRP3 [1]) was < 500 nM and the IC50 (NLRP3 [2]) was < 100 nM.
For `COc1cc(-c2ccc3c(c2NC(=O)N[S@](=N)(=O)c2ccn(C(C)C)n2)CCC3)ccn1` [Example 28, (S)-1-Isopropyl-N-((5-(2-methoxypyridin-4-yl)-2,3-dihydro-1H-inden-4-yl)carbamoyl)-1H-pyrazole-3-sulfonimidamide], the IC50 (NLRP3 [1]) was < 5000 nM and the IC50 (NLRP3 [2]) was < 1000 nM.
In the case of `CC(C)c1cc(F)cc(-c2ccnc(C#N)c2)c1NC(=O)NS(=N)(=O)c1ccn(C(C)C)n1` (centres unmarked) [Example 15, N-((2-(2-Cyanopyridin-4-yl)-4-fluoro-6-isopropylphenyl)carbamoyl)-1-isopropyl-1H-pyrazole-3-sulfonimidamide], the IC50 (NLRP3 [1]) is reported as < 1000 nM and the IC50 (NLRP3 [2]) is reported as < 1000 nM.
With `CC(C)n1cc(Cl)c(S(=N)(=O)NC(=O)Nc2c(-c3ccncc3)cc(F)c3c2CCC3)n1` (centres unmarked) [Example 26, 4-Chloro-N-((7-fluoro-5-(pyridin-4-yl)-2,3-dihydro-1H-inden-4-yl)carbamoyl)-1-isopropyl-1H-pyrazole-3-sulfonimidamide] the IC50 (NLRP3 [1]) was < 500 nM and the IC50 (NLRP3 [2]) was < 100 nM.
For `CC(c1cc(S(=N)(=O)NC(=O)Nc2c3c(cc4c2CCC4)CCC3)nn1C)N1CCC1` (centres unmarked) [Example 22, 5-(1-(Azetidin-1-yl)ethyl)-N-((1,2,3,5,6,7-hexahydro-s-indacen-4-yl)carbamoyl)-1-methyl-1H-pyrazole-3-sulfonimidamide], the IC50 (NLRP3 [1]) was < 500 nM and the IC50 (NLRP3 [2]) was < 100 nM.

Source: patent US11623922B2, “Compounds” (INFLAZOME LIMITED, priority 2017, dated 2023)
